{"source": "patent US5594033A", "about": "“Secoaporphine compound on arrhythmia” (National Science Council, priority 1993, dated 1997)", "key": {"[1]": {"tested_on": "guinea pig left atrium treated with 0.6 μM ouabain", "experiment": "Ouabain induced arrhythmia in guinea pig left atria", "settings": "for minimal effective concentration: Cavia porcellus, read-out: Concentration that suppressed the ouabain-induced arrhythmia", "procedure": "The left atrium of guinea pigs was first treated with 0.6 μM of ouabain and the contractile force was monitored."}, "[2]": {"tested_on": "myocyte action potential", "experiment": "Action potential of myocytes, single cell current clamp", "assay_type": "cell-based, rat", "description": "(§1) Ventricular cells isolated from rats and guinea pigs were placed in a chamber mounted on an inverted microscope, the effects of the test compounds on the action potential and the membrane current were studied by single cell current clamp and voltage clamp technique."}, "[3]": {"tested_on": "transient outward current (Ito) in rat ventricular cell", "experiment": "Transient outward current (Ito), voltage clamp", "assay_type": "cell-based", "settings": "for inhibition at 6 µM: Rattus norvegicus, read-out: Ito", "description": "as §1"}, "[4]": {"tested_on": "rat right atria, left atria and right ventricular strips", "experiment": "Contractile force and heart rate of isolated rat atria and right ventricle", "settings": "n = 6, mean ± S.E.M.", "procedure": "Method: After anesthetizing rats with pentobarbital, the heart was taken out, both the atrium and the right ventricle were separately placed in 10 ml of Tyrode solution. The spontaneous contraction of the right atrium was recorded. The contraction of the left atrium and the right ventricle was driven by stimulation at a frquency of twice per second."}, "[5]": {"tested_on": "delayed rectifier (IK) in guinea pig ventricular cell", "experiment": "Delayed rectifier potassium current (IK), voltage clamp", "assay_type": "cell-based", "settings": "Cavia porcellus, guinea pig ventricle cell, read-out: Degree of inhibition of IK", "description": "as §1"}, "[6]": {"tested_on": "calcium current (ICa) of rat ventricle cell", "experiment": "Calcium inward current (ICa), voltage clamp", "assay_type": "cell-based", "description": "as §1"}, "[7]": {"tested_on": "sodium current (INa), sodium channel", "experiment": "Sodium inward current (INa), voltage clamp", "assay_type": "cell-based, rat", "settings": "for V1/2 of potential-dependent steady state inactivation of sodium current: control -60.9 mV", "description": "as §1"}}, "note": "Where two headings read alike, the source gives them in different places.", "data": [{"smiles": "CCN(CC)CC(=O)Nc1c(C)cccc1C", "note": "[lidocaine, reference compound]", "values": [{"measurement": "minimal effective concentration", "setting": "[1]; guinea pig atrium, 0.6 μM ouabain", "value": "≥ 30", "unit": "µM"}]}, {"smiles": "C=C[C@H]1C[N@@]2CC[C@H]1C[C@@H]2[C@@H](O)c1ccnc2ccc(OC)cc12", "note": "[quinidine, reference compound]", "values": [{"measurement": "Action potential plateau", "setting": "[2]; 30 MM", "value": "decreased action potential plateau"}, {"measurement": "inhibition at 3 µM", "setting": "[3]; 3 μM, rat ventricular cell, read-out: Reduction of Ito", "value": "~60", "unit": "%"}]}, {"smiles": "C=CCN(C)CCc1cc(OC)c(OC)c2c1ccc1cc(OC)c(OC)cc12", "note": "[compound 4, N-allylsecoglaucine]", "values": [{"measurement": "Arrhythmia induced by Ouabain: effect on rhythm", "setting": "[1]; FIG. 12, ouabain 0.6 μM", "value": "conversion to normal paced rhythm"}, {"measurement": "Effect on the myocyte action potential", "setting": "[2]; compared with N-allylsecoboldine", "value": "very similar effect on the myocyte action potential as N-allylsecoboldine"}]}, {"smiles": "C=CCN(C)CCc1cc(O)c(OC)c2c1ccc1cc(O)c(OC)cc12", "note": "[compound 1, N-allylsecoboldine]", "values": [{"measurement": "activity at 9 µM", "setting": "[4]; left atria driven at 2 Hz, read-out: Contractile tension (%)", "value": "126 ± 6.3", "unit": "%"}, {"measurement": "activity at 9 µM", "setting": "[4]; right atria, spontaneous beating rate, read-out: H. R. (%)", "value": "58.5 ± 3.4", "unit": "%"}, {"measurement": "activity at 9 µM", "setting": "[4]; right atria, spontaneous contraction, read-out: Contractile tension (%)", "value": "164 ± 14", "unit": "%"}, {"measurement": "activity at 9 µM", "setting": "[4]; right ventricle strips driven at 2 Hz, read-out: Contractile tension (%)", "value": "126 ± 7.3", "unit": "%"}, {"measurement": "inhibition at 1 µM", "setting": "[5]", "value": "20 to 30", "unit": "%"}, {"measurement": "inhibition at 3 µM", "setting": "[5]; 3 μM", "value": "50 to 60", "unit": "%"}, {"measurement": "inhibition at 9 µM", "setting": "[5]; 9 μM", "value": "70 to 80", "unit": "%"}, {"measurement": "Prolongation of the myocyte action potential", "setting": "[2]; 1 μM", "value": "prolongation of the myocyte action potential was seen"}, {"measurement": "Duration of the action potential (prolonged to)", "setting": "[2]; 3 μM, driven at 0.2 Hz", "value": "five"}, {"measurement": "Action potential plateau", "setting": "[2]; concentration not given, FIG. 4", "value": "increased it"}, {"measurement": "Shift of the potential-dependent inactivation curve of Ito", "setting": "[3]; FIG. 6, 0.6 μM", "value": "to the right"}, {"measurement": "Inhibitory effect on calcium current", "setting": "[6]; 3 μM", "value": "did not show any inhibitory effect"}, {"measurement": "activity at 12 µM", "setting": "[6]; 12 μM, added in cumulative manner, rat ventricle cell, read-out: Calcium current (ICa), % of control", "value": 71, "unit": "%"}, {"measurement": "inhibition at 12 µM", "setting": "[6]; Rattus norvegicus, 0.1 h, 12 μM, non-treated cell retained 79% at 6 minutes, read-out: Actual degree of inhibition in calcium current, corrected for spontaneous rundown", "value": 9, "unit": "%"}, {"measurement": "V1/2 of potential-dependent steady state inactivation of sodium current", "setting": "[7]; 3 μM", "value": -70.8, "unit": "mV"}, {"measurement": "V1/2 of potential-dependent steady state inactivation of sodium current", "setting": "[7]; 9 μM", "value": -85.9, "unit": "mV"}, {"measurement": "Sodium current, % of control", "setting": "[7]; 0.9 to 1.2 μM, guinea pig atrial cell or rat ventricle cell", "value": "25 % of control"}]}, {"smiles": "COc1cc2ccc3c(CCN(C)C)cc(OC)c(OC)c3c2cc1OC", "note": "[compound 8, N-methylsecoglaucine]", "values": [{"measurement": "inhibition at 6 µM", "setting": "[3]", "value": 70, "unit": "%"}]}, {"smiles": "COc1cc2c(ccc3c(CCN(C)C#N)cc(O)c(OC)c32)cc1O", "note": "[compound 26, N-cyanosecoboldine]", "values": [{"measurement": "inhibition at 6 µM", "setting": "[3]", "value": 80, "unit": "%"}]}, {"smiles": "COc1cc2ccc3c(CCN(C)C)cc(O)c(OC)c3c2cc1OC", "note": "[compound 9, N-methylsecopredicentrine]", "values": [{"measurement": "inhibition at 6 µM", "setting": "[3]", "value": 60, "unit": "%"}]}, {"smiles": "C=CCN(C)CCc1cc(O)c(OC)c2c1ccc1cc(OC)c(OC)cc12", "note": "[compound 3, N-allylsecopredicentrine]", "values": [{"measurement": "minimal effective concentration", "setting": "[1]", "value": 30, "unit": "µM"}]}, {"smiles": "COc1cc2c(ccc3c(CCN(C)Cc4ccccc4)cc(O)c(OC)c32)cc1O", "note": "[compound 5, N-benzylsecoboldine]", "values": [{"measurement": "inhibition at 1 µM", "setting": "[5]", "value": 30, "unit": "%"}, {"measurement": "Inhibitory effect on transient outward current (Ito) versus quinidine", "setting": "[3]; 3 μM, rat ventricular cell", "value": "more profound inhibitory effect"}]}]}
